According to US20240368120A1 (Terns Pharmaceuticals, Inc., priority 2023, published 2024):

How the values were obtained:
[1] = Metabolic stability in human hepatocytes; assay type: in vitro ADME; conditions: cryopreserved hepatocytes, 1 μM, 1×10^6 cells/mL, 0-240 min; for half-life at 1 μM: read-out: Human t1/2
Experimental: (§1) Test compounds were incubated in rat and human hepatocytes and stability was assessed from the substrate […] approach. Test compounds were dissolved in dimethyl sulfoxide (DMSO) to create a 10 mM Stock, and then further diluted to create a 1000× Working Stock of 1 mM with DMSO in 96-well plates for test compounds and the positive control (midazolam). Vials containing cryopreserved hepatocytes were removed from the liquid nitrogen tank and immediately immersed in a 37° C. water bath. The vials were shaken gently until the contents had thawed and were then immediately emptied into 48 mL of pre-warmed HT Medium in a 50 mL conical tube. Cells remaining in the vial were resuspended with 1.0 mL of pre-warmed HT Medium and added to the conical tube. The tube was capped and then gently inverted several times to resuspend the hepatocytes. The cell suspension was centrifuged at 50×g at room temperature for 5 minutes and the supernatant discarded. The cell pellet was loosened by gently swirling the centrifuge tube and was re-suspended in 4 mL of warm Dulbecco's Modified Eagle medium (DMEM). Cell density was determined by a cell counter by Nexcelom, and DMEM medium was added to obtain a target density of 1×10^6 cells/mL. The assay was carried out in 96-well microtiter plates. Test Compounds were incubated at 1 μM with 1×10^6 cells/mL hepatocytes in DMEM for 0, 30, 60, 120 and 240 minutes. The incubation was carried out with gentle shaking at 37° C. under a humid atmosphere of 95% air/5% CO2. The volume of the incubation mixture was 37 μL with a final 0.1% DMSO. At each of the time points, the incubation was stopped by adding 150 μL quenching solution (100% acetonitrile, 0.1% formic acid containing bucetin as an internal standard for positive ESI mode). Subsequently, the mixtures were vortexed for 20 min and centrifuged at 4,000 RPM at 10° C. The supernatant (80 μL) was transferred to a clean 96-well plate and analyzed by LC-MS/MS. Midazolam at 1 μM with a final 0.1% DMSO was included as a positive control to verify assay performance. The percent parent remaining, intrinsic and predicted hepatic clearance and t1/2 were calculated. All samples were analyzed by LC-MS/MS using an AB Sciex API 4000 instrument, coupled to a Shimadzu LC-20AD LC Pump system. Separation was achieved using a Waters Atlantis T3 dC18 reverse phase HPLC column (20 mm×2.1 mm) at a flow rate of 0.5 mL/min. The mobile phase consisted of 0.1% formic acid in water (solvent A) and 0.1% formic acid in 100% acetonitrile (solvent B). Elution conditions are detailed below.
(§2) The ion optics of each test compound were optimized for their declustering potential (DP), […] (CE), collision-cell exit potential (CXP) and used in a selected ion monitoring experiment in the positive ion mode. The peak area ratio of each test compound to internal standard was then evaluated for stability. The extent of metabolism was calculated based on the disappearance of the test compound, compared to its initial concentration. The initial rates of clearance of the test compound were calculated using the linear regression plot of semi-log % remaining of the compound versus time. The elimination rate constant (k) of the linear regression plot was then used to determine t1/2 and the intrinsic clearance (CLint) using the following formula, where Chepatocyte (million cells/mL) is the cell density of the incubation:
(§3) The predicted hepatic clearance (CLhep) was calculated using the well stirred method with the following formula with CLint (in vivo) normalized based on liver weight: […]
(§4) The relevant physiological parameters of liver weight, blood flow, and hepatocellularity for various species are listed below: […]

human hepatocytes = test: Metabolic stability in human hepatocytes; assay type: in vitro ADME; conditions: predicted hepatic clearance, well stirred method
Experimental: as §1, §2, §3, §4

human GLP-1R receptor = molecular target: T1, human GLP-1R receptor (Homo sapiens, UniProt P43220); test: GLP-1R low expression cell assay (cAMP TR-FRET, CHO-K1_hGLP-1Rlow_clone10 cells); assay type: cell-based; conditions: for EC50: cAMP TR-FRET, 30 min at 25° C.; for Emax: maximum activation relative to control GLP-1 peptide agonist
T1 construct: expressed in transfected cells
T1 sequence (P43220 24-463): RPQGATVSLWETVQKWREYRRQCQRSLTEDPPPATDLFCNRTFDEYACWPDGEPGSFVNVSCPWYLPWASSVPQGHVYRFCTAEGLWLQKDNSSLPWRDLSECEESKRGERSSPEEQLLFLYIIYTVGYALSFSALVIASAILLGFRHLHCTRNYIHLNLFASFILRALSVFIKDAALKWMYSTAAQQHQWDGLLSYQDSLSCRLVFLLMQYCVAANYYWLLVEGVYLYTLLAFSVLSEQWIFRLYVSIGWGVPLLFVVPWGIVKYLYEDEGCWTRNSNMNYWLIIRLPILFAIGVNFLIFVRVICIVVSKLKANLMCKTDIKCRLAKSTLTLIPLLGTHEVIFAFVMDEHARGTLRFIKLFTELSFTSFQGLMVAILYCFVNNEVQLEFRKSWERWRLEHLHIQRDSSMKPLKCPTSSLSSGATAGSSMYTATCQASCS
Method in brief: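 CHO-K1 cells stably expressing low surface human GLP-1R (clone10), 1,000 cells/well, exposed to 10-point 3-fold compound dilutions for 30 min at 25 °C. cAMP measured by TR-FRET (Eu-cAMP tracer/ULight-anti-cAMP, 15 min). EC50 from Hill fit of duplicate percent activation relative to a parallel GLP-1 control agonist.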

rat hepatocytes = test: Metabolic stability in rat hepatocytes; assay type: in vitro ADME; conditions: predicted hepatic clearance, well stirred method
Experimental: as §1, §2, §3, §4

[2] = Metabolic stability in rat hepatocytes; assay type: in vitro ADME; conditions: cryopreserved hepatocytes, 1 μM, 1×10^6 cells/mL, 0-240 min; for half-life at 1 μM: read-out: Rat t1/2
Experimental: as §1, §2, §3, §4

| Compound | CLint scaled at 1 μM [1] | half-life at 1 μM [1] | Human Clhep predicted (human hepatocytes) | EC50 (human GLP-1R receptor) | Emax (human GLP-1R receptor) | Rat Clhep predicted (rat hepatocytes) | CLint scaled at 1 μM [2] | half-life at 1 μM [2] |
| --- | --- | --- | --- | --- | --- | --- | --- | --- |
| COc1cc(C(=O)O)cc2c1nc(CN1CCC(c3cccc(OCc4ccc(C#N)cc4F)n3)CC1)n2C[C@@H]1CCO1 [Compound 8, (S)-2-((4-(6-((4-Cyano-2-fluorobenzyl)oxy)pyridin-2-yl)piperidin-1-yl)methyl)-4-methoxy-1-(oxetan-2-ylmethyl)-1H-benzo[d]imidazole-6-carboxylic acid] | 6.18 ± 0.7 mL/min/kg | 0.0743 ± 0.0112 h | 4.76 ± 0.68 mL/min/kg | < 10 nM | > 85% | 18.31 ± 1.71 mL/min/kg | 27.4 ± 1.77 mL/min/kg | 2.02 ± 0.131 h |
| COc1cc(C(=O)O)cc2c1nc(CN1CCC(c3cccc(OCc4ccc(C#N)cc4F)n3)CC1)n2Cc1cncs1 [Compound 1, 2-((4-(6-((4-Cyano-2-fluorobenzyl)oxy)pyridin-2-yl)piperidin-1-yl)methyl)-4-methoxy-1-(thiazol-5-ylmethyl)-1H-benzo[d]imidazole-6-carboxylic acid] | 14.2 ± 0.97 mL/min/kg | 2.83 ± 0.193 h | 8.42 ± 0.92 mL/min/kg | < 10 nM | > 85% | 30.61 ± 3.29 mL/min/kg | 68.7 ± 3.5 mL/min/kg | 0.806 ± 0.041 h |
